The numbers were not newly measured in patent US10493103B2, “Peroxide formulations and methods and applicators for using the same” (ACLARIS THERAPEUTICS, INC., priority 2014, dated 2019), which cites them from elsewhere.

The test system of the data set is seborrheic keratosis.
The mark [1] stands for this setting: applied once daily for 16 weeks.

Where two headings read alike, the source gives them in different places.

With `CC(O)C(=O)O.N` (stereo not shown) [ammonium lactate], the “effectiveness in seborrheic keratosis” value (in vivo) is reported as “ineffective”.
With `C=C1/C(=C\C=C2/CCC[C@]3(C)[C@@H]([C@H](C)/C=C/[C@@H](O)C4CC4)CC[C@@H]23)C[C@@H](O)C[C@@H]1O` [calcipotriene ointment, calcipotriene], the “effectiveness in seborrheic keratosis” value under setting [1] is recorded as “ineffective”.
`CC(C)Cn1cnc2c(N)nc3ccccc3c21` [imiquimod cream, imiquimod]: under setting [1], the “effectiveness in seborrheic keratosis” value is recorded as “ineffective”.
Consider `CCOC(=O)c1ccc(C#Cc2ccc3c(c2)C(C)(C)CCS3)nc1` [tazarotene 0.1%, tazarotene], for which, under “applied twice daily”, the complications of therapy entry was “burning, pruritus and redness”. In addition, the subjects with efficacy (applied twice daily, off-label, 7/15 subjects) is listed as 47%.
Regarding `CCOC(=O)c1ccc(C#Cc2ccc3c(c2)C(C)(C)CCS3)nc1` [tazarotene cream, tazarotene], the “effectiveness in seborrheic keratosis” value under setting [1] was “ineffective”.
`C=C1CC[C@H](O)C/C1=C/C=C1\CCC[C@]2(C)[C@@H]([C@H](C)CCCC(C)C)CC[C@@H]12` [topical vitamin D3 ointment, vitamin D3]: the “patients with an 80% or more improvement in lesions” value (once or twice daily for an average of 7.3 months (range 3-12 months)) is 30%.
